Laboratory results as given in PMC13193388, “Dimerization‐dependent NOTCH receptor transactivation unveils a class of highly selective NOTCH signalling inhibitors” (The Febs Journal, 2025).
Entries after “also recorded” stand apart in the source; their conditions may differ.

Columns and labels:
[1] = biological target: T1, NOTCH3-ECD (Homo sapiens, UniProt Q9UM47); assay: SPR peptide binding to immobilized recombinant NOTCH3-ECD
T1 construct: we purified the complete (recombinant) N3 ECD from human tissue culture cells; made in house; host or cells: PEC.3.30 (modified Per.E2A human cells), purified from culture supernatant
Protocol: (§1) The NOTCH3‐ECD protein was produced using PEC.3.30, which is modified Per.E2A cells. DMEM cell supernatant containing the NOTCH3‐ECD protein was collected for purification. The supernatant was loaded onto a HisTrap high‐performance (HP) column (Cytiva, Uppsala, Sweden) and eluted with a gradient buffer that included 500 mM imidazole, 25 mM HEPES at pH 7.5 and 500 mM NaCl. The pooled fractions were concentrated using a 50 000 molecular weight cut‐off (MWCO) centrifugal filter (Millipore, Merck KGaA, Darmstadt, Germany), resulting in a buffer of 10 mM imidazole, 25 mM HEPES at pH 7.5 and 100 mM NaCl. The concentrated protein solution was subsequently loaded onto a Superdex 200 16/600 gel filtration column (Cytiva, Uppsala, Sweden), which was equilibrated with 25 mM HEPES at pH 7.5 and 100 mM NaCl. Similar yields of purified protein were obtained across all samples. The purified proteins were snap‐frozen in liquid nitrogen immediately after purification and stored at −80 °C.
Peptide binding to the NOTCH3‐ECD protein using SPR was performed using a Biacore T200. The NOTCH3‐ECD protein was immobilized onto a Biacore NTA Series S Sensor Chip (Cytiva), at a concentration of 0.1 μg·μL^−1 using Nickel‐NTA capture‐coupling, resulting in approximately 3500 RU of immobilized protein. Peptides were introduced using the ‘Eject rack’ function, followed by analysis. […]

[2] = test system: N3 receptor; assay: Cell surface ligand-N3 receptor binding assay; type: cell-based, human; settings: 293 T cells stably expressing HA-tagged N3, crosslinked, western blot; n = 3
Protocol: (§2) Confluent 10‐cm dishes of 293 T cells stably expressing HA epitope‐tagged NOTCH receptors were washed with ice‐cold phosphate buffered saline (PBS)/bovine serum albumen (BSA) (1 mg·mL^−1). Cells were stimulated with 50 μL of ligand (0.5 mg·mL^−1) in the presence of 1.5 mL of PBS/BSA (1 mg·mL^−1) for 1 h, with gentle shaking, at 4 °C. Cells were washed once with PBS. Cells were incubated with crosslinkers in the presence of 2 mL of ice‐cold PBS for 15 min, with gentle shaking at 4 °C: 0.27 μM disuccinimidyl suberate (DSS) (Pierce, Rockford, IL, USA) and 0.07 μM bis‐sulfosuccinimidyl suberate (BS3) (Pierce). Cells were washed once with ice‐cold detachment buffer (10 mM Tris–HCl pH 7.4, 1 mM EDTA pH 7.4, 10% glycerol), scraped off the plates in 1 mL of detachment buffer and transferred to Eppendorf tubes. Cell pellets were lysed in 1 mL of solubilization buffer (125 mM NaCl, 10 mM Tris–HCl pH 7.4, 1 mM EDTA pH 7.4, 1% Triton X‐100) on ice for 30 min and centrifuged at 13000 r.p.m. for 10 min. Supernatants were incubated with HA antibody (Covance, Princeton, NJ, USA) overnight at 4 °C. 50 μL of washed (4×) protein A/G beads (50% solution) was added, and samples were incubated for 45 min at 4 °C. The beads were washed four times with solubilization buffer. 50 μL of sample buffer was added and samples were boiled for 5–10 min prior to gel electrophoresis. […]

[3] = test system: N2 receptor; assay: Cell surface ligand-N2 receptor binding assay; type: cell-based, human; settings: Fig. 4D; n = 3
Protocol: as §2

[4] = test system: N3 receptor; assay: N3 downstream NOTCH target gene expression (real-time qPCR); type: cell-based, human; settings: 293 T cells with HA-N3, recombinant DLL1, 3 h, n = 3
Protocol: (§3) Human embryonic kidney (HEK) 293 T cells (RRID:CVCL_0063) were cultured in Dulbecco's Modified Eagle Medium (DMEM) (Gibco, Grand Island, NY, USA) supplemented with 10% fetal bovine serum (FBS) (Gibco). This cell line was obtained from the American Type Culture Collection (ATCC, Manassas, VA, USA). T‐ALL cell lines (kindly provided by Professor Jan Cools – VIB, Leuven): MOLT4 (RRID:CVCL_0013), ALL SIL (RRID:CVCL_1805), DND‐41 (RRID:CVCL_2022), HPB‐ALL (RRID:CVCL_1820), SUP‐T1 (RRID:CVCL_1714) and JURKAT (RRID:CVCL_0065), were cultured in Roswell Park Memorial Institute (RPMI) 1640 medium (Gibco) supplemented with 10% FBS (Gibco). Cells were maintained in a 5% CO2, 37 °C humidified incubator, tested monthly for mycoplasma contamination using a MycoAlert kit (Lonza, Walkersville, MD, USA), and checked for authenticity, in the last 3 years, by an in‐house service using short tandem repeat (STR) profiling. Transfections, lentivirus production and cell infections, western blotting and co‐immunoprecipitations have been described previously. […] RNA isolation, first‐strand cDNA synthesis and analysis of expression of transcripts by quantitative (q) PCR were performed as described previously. […] Expression of these proteins was determined using antibodies directed against either the coding region of the protein or the epitope tag. […]

[5] = test system: N2 receptor; assay: Ligand-dependent N2 receptor cleavage (western blot); type: cell-based, human; settings: 293 T cells with HA-N2, recombinant DLL1; n = 3
Protocol: as §3

[6] = test system: N2 receptor; assay: N2 receptor dimerization (immobilized HIS-N2 with HA-N2, western blot); type: biochemical, human; settings: HIS-N2 on nickel beads with HA-N2, western blot; n = 3
Protocol: as §3, with “(Gibco).” for “(Gibco). Cells were maintained in a 5% CO2, 37 °C humidified incubator, tested monthly for mycoplasma contamination using a MycoAlert kit (Lonza, Walkersville, MD, USA), and checked for authenticity, in the last 3 years, by an in‐house service using short tandem repeat (STR) profiling. Transfections, lentivirus production and cell infections, western blotting and co‐immunoprecipitations have been described previously.”
(§4) Domains for recombinant protein production were cloned into the pET 28a vector in‐frame to an N‐terminal HIS6 epitope. […] Protein yields were determined by Bradford assay (Bio‐Rad, Hercules, CA, USA), and relative protein integrity and purity were determined by SDS/PAGE and Colloidal Blue staining (Invitrogen, Carlsbad, CA, USA). […] Proteins were separated by SDS/PAGE and associated proteins were detected by western blotting.

[7] = test system: N3 receptor; assay: N3 receptor dimerization (immobilized HIS-N3 with HA-N3, western blot); type: biochemical, human; settings: peptides 10 μM unless otherwise stated, n = 3
Protocol: as §3, with “(Gibco).” for “(Gibco). Cells were maintained in a 5% CO2, 37 °C humidified incubator, tested monthly for mycoplasma contamination using a MycoAlert kit (Lonza, Walkersville, MD, USA), and checked for authenticity, in the last 3 years, by an in‐house service using short tandem repeat (STR) profiling. Transfections, lentivirus production and cell infections, western blotting and co‐immunoprecipitations have been described previously.”
as §4

[8] = test system: N3 ECD homodimer; assay: Nondenaturing gel: disruption of purified N3 ECD homodimer; type: biochemical, human; settings: nondenaturing acrylamide gel, purified HIS-tagged N3 ECD; n = 3
Protocol: as §1

[9] = test system: N3 receptor; assay: N3 transactivation luciferase reporter assay; type: cell-based, human
Protocol: (§5) Reporter assays were performed as previously described. Briefly, stable cell lines expressing epitope‐tagged ligands and receptors were established via infection of cells with lentiviruses harbouring the appropriate ligand/receptor cDNA followed by selection with the encoded antibiotic (puromycin or neomycin). For transactivation assays, cells co‐expressing receptor and reporter were cocultured with cells stably expressing ligand alone (to enable transactivation). […] For each experiment, cells were seeded in triplicate in 12‐well plates. The NOTCH luciferase reporter harboured 10× Recombination Signal Binding Protein for Immunoglobulin kappa J (RBPJ) consensus DNA‐binding sites, and was cotransfected with thymidine kinase promoter‐driven Renilla luciferase control plasmid. Additionally, transfection efficiencies (routinely > 90%) were determined through visualization of cotransfected plasmid encoding the Tomato fluorescence reporter. Cells were lysed 36 h postplating, and luciferase activity was measured using a luciferase assay substrate (Promega). Luciferase activity was normalized by measuring Renilla luciferase activity (Promega). Where indicated, assays were performed in the presence or absence of 10 μM DAPT (Sigma‐Aldrich, St. Louis, MO, USA). Receptor and ligand protein levels were determined by western blotting. Experiments were performed three times. […]

[10] = test system: N3 receptor; assay: Ligand-dependent N3 receptor cleavage (western blot); type: cell-based, human; settings: 293 T cells, recombinant DLL1, peptides 10 μM unless otherwise stated
Protocol: as §3

[11] = test system: NOTCH receptors; assay: Endogenous HEY expression in 293 T cells expressing NOTCH receptors (real-time qPCR); type: cell-based, human; settings: 3 h, DAPT 20 μM, n = 3 (Fig. 4F)
Protocol: as §3

[12] = test system: N2 receptor; assay: N2 transactivation luciferase reporter assay; type: cell-based, human; settings: Fig. 4A,E, n = 3
Protocol: as §5

T1 sequence (Q9UM47 40-1643 limits assumed): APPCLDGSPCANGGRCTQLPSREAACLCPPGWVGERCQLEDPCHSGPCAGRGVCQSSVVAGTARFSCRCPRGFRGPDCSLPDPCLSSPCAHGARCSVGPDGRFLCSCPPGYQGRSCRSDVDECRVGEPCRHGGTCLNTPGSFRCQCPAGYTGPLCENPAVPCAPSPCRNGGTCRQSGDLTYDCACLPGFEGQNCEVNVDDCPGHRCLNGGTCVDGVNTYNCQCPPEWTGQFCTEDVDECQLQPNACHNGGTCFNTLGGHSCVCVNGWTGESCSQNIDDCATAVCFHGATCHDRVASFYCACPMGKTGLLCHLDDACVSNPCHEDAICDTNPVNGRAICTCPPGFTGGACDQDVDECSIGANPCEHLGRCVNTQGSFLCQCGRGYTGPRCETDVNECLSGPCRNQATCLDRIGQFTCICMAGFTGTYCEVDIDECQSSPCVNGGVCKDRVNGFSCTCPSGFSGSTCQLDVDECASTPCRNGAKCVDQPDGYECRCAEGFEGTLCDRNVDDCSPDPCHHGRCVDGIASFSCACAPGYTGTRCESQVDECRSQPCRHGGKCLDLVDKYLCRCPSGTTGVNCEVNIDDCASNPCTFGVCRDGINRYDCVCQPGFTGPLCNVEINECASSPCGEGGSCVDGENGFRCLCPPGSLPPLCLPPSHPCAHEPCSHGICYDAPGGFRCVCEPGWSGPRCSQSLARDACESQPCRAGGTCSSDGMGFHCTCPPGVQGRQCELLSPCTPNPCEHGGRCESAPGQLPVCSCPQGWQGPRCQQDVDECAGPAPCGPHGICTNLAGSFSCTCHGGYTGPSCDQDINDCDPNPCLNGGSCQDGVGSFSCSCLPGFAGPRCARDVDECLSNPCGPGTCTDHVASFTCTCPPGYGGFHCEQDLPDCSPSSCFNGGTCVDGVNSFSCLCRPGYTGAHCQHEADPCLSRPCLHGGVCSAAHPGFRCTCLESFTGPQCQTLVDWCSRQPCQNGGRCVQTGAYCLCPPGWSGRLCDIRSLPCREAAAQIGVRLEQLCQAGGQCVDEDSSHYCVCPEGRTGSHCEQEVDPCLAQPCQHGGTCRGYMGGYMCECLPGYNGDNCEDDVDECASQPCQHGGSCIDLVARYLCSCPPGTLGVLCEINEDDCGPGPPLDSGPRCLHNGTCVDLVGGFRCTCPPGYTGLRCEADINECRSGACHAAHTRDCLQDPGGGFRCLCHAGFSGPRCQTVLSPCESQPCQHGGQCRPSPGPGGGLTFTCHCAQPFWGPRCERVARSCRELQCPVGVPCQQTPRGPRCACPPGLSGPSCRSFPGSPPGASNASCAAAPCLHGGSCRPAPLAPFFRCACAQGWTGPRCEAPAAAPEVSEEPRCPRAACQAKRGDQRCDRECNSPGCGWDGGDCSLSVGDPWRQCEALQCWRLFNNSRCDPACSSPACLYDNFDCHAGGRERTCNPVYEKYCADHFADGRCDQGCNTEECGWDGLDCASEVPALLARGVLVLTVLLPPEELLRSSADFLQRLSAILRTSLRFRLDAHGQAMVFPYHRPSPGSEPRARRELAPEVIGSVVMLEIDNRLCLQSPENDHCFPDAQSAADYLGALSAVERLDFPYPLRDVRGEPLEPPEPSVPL

With “EKYGGGHFADGR [control peptide, control peptide (…), core of the dimerization motif mutated (to glycine), reference compound]” the “binding to N3 ECD” value ([1]; control peptide with motif core mutated to glycine) was “failed to bind efficiently to the N3 ECD”.
For “EKYCADHFADGR [N34, N3 peptide (…) centred on the helix encompassing the core dimerization motif]”, the “K D (range in words)” value ([1]; pure recombinant N3 ECD purified from human cells) was “low nM range”, the “block of stable ligand-receptor binding at the cell surface (N3)” value [2] was “efficiently blocked” and the “effect on stable N2 receptor-ligand binding at the cell surface” value [3] was “little detectable effect”. The “inhibition of downstream NOTCH target genes (N3)” value [4] was “robustly inhibit”, the “effect on N2 receptor cleavage” value [5] was “little detectable effect” and the “effect on N2 receptor dimerization” value [6] was “little detectable effect”. The “inhibition of N3 receptor dimerization” value [7] was “robustly inhibit”, the “disruption of N3 ECD homodimer” value [8] was “disrupted” and the “selectivity for N3 over N2 and N1” value ([9]; Fig. 4E) was “exquisite selectivity for N3 (and not N2 or N1”. For the same sequence, the “inhibition of N3 transactivation (NOTCH reporter)” value ([9]; coculture with ligand cells, lysed 36 h postplating, peptides 10 μM unless otherwise stated, n = 3) was “robustly inhibit; also recorded: inhibited N3 receptor activity”, the “inhibition of ligand-dependent N3 receptor cleavage” value [10] was “robustly inhibit” and the “suppression of NOTCH-driven gene expression compared to DAPT” value [11] was “as efficiently as the generic gamma secretase inhibitor (GSI), DAPT”. For the same sequence, the “effect on N2 receptor transactivation / downstream gene activation” value [12] was “little detectable effect”.
